Assay results published in patent US20100152434A1, “Protein Kinase-binding Nucleosides and Associated Methods” (priority 2007, published 2010).

Legend:
[1] = tested on: RXF 393; settings: RXF393; single dose (10 μM)
[2] = tested on: MOLT-4; settings: single dose (10 μM)
[3] = tested on: UO-31; settings: single dose (10 μM)
[4] = tested on: HOP-92; settings: single dose (10 μM)
[5] = tested on: LOX IMVI; settings: single dose (10 μM)

Compound: CNC(=O)NC[C@H]1O[C@@H](n2cnc3c(NC(=O)Nc4ccccc4)ncnc32)C2OC(=O)C[C@H]21 (some centres unmarked) [Compound 33, 3′-(Carboxymethyl)-3′,5′-dideoxy-5′-[(N-methylcarbamoyl)amino]-N^6-(N-phenylcarbamoyl)adenosine-2′,3′-lactone]
- anticancer activity (GI) [1]: potent and selective anticancer activities
- anticancer activity (GI) [2]: potent and selective anticancer activities
- anticancer activity (GI) [3]: potent and selective anticancer activities
- anticancer activity (GI) [4]: potent and selective anticancer activities
- anticancer activity (GI) [5]: potent and selective anticancer activities
